Data as given in patent US20230126310A1 (priority 2020, published 2023).
Structures can show the parent of a compound that is named as a salt.

Test system: SARS-CoV-2
Conditions: 10 µM

Row | Compound | % Inh. (% Inhibition of SARS-CoV-2) [%]
1 | C=C1/C(=C\C=C2/CCC[C@]3(C)[C@@H]([C@H](C)/C=C/[C@H](C)C(C)(C)O)CC[C@@H]23)C[C@@H](O)C[C@@H]1O [Ercalcitriol] | 86.9
2 | CCCCCCN(CCCCCC)C(=O)Cc1c(-c2ccc(F)cc2)[nH]c2ccccc12 [FGIN-1-27] | 73.5
3 | Nc1[nH]nc2nnc(-c3c(-c4ccccc4)nn4ccccc34)cc12 [FR-180204] | 58.8
4 | CNC[C@H](O)[C@@H](O)[C@H](O)[C@H](O)CO.CNC[C@H](O)[C@@H](O)[C@H](O)[C@H](O)CO.C[C@@H](O[C@H]1OCCN(Cc2nn(P(=O)(O)O)c(=O)[nH]2)[C@H]1c1ccc(F)cc1)c1cc(C(F)(F)F)cc(C(F)(F)F)c1 [Fosaprepitant dimeglumine salt] | 78.3
5 | Cl.Cl.Fc1ccc(C(OCCN2CCN(C/C=C/c3ccccc3)CC2)c2ccc(F)cc2)cc1 [GBR-13069] | 66.7
6 | Cc1ccc(Nc2ncc3c(n2)N(C)C(=O)N(c2cc(NC(=O)c4cccc(C(F)(F)F)c4)ccc2C)C3)cn1 [GNF-7] | 107.6
7 | O=C1NC(=O)/C(=C/c2ccc3nccc(-c4ccncc4)c3c2)S1 [GSK1059615] | 92.4
8 | Cc1c(Cn2c(C)nc3c(C(=O)O)cc(N4CCOCC4)cc32)cccc1C(F)(F)F [GSK2636771] | 88.1
9 | Cc1cccc(CC(=O)N2CCc3c2ccc(-c2cn(C)c4ncnc(N)c24)c3F)n1 [GSK2656157] | 95.0
10 | CCCCCCCC/C=C/CCCCCCCC(=O)OC[C@H]1O[C@@H](n2ccc(N)nc2=O)C(F)(F)[C@@H]1O [Gemcitabine (elaidate)] | 111.3
11 | N[C@H]1CCN(O)C1=O [HA-966-(S)-(−)] | 52.3
12 | Cc1ccc(-c2csc(NC(=O)c3ccccc3)n2)c(C)c1 [INH1] | 89.8
13 | CC(C)n1nc(-c2ccc3oc(N)nc3c2)c2c(N)ncnc21 [INK 128 (MLN0128)] | 84.9
14 | CCCCN1[C@@H]2CC[C@H]1CC(OC(c1ccc(F)cc1)c1ccc(F)cc1)C2 (some centres unmarked) [JHW-007] | 93.1
15 | Clc1ccc(N/N=C(\c2ccccc2)c2ccccn2)nc1 [JIB04 (NSC693627)] | 106.4
16 | CCOc1ccc(Nc2nc(-c3c(C)nc4ccccn34)cs2)cc1 [JK-184] | 65.2
17 | O=C(Nc1ccccc1)N1CCN(c2nc(-c3ccccc3)ns2)CC1 [JNJ 1661010] | 93.8
18 | O=C(Nc1cnccc1Cl)N1CCN(Cc2ccc3c(c2)OC(F)(F)O3)CC1 [JNJ-42165279] | 94.9
19 | COc1cc(SC)ccc1C(=O)N1CCC(Cc2ccccc2)CC1 [JX-401] | 71.2
20 | CSc1ccccc1Nc1nc(N2CCNCC2)nc2c(NCC3CC3)ncnc12 [KHK-IN-1 (hydrochloride)] | 71.8
21 | CC(C)CNc1ccnc(NCc2csc(-c3ccccc3)n2)n1 [KHS-101] | 91.2
22 | CN([C@@H](Cc1ccc(OS(=O)(=O)c2cccc3cnccc23)cc1)C(=O)N1CCN(c2ccccc2)CC1)S(=O)(=O)c1cccc2cnccc12 [KN-62] | 96.5
23 | COc1ccc(S(=O)(=O)N(CCO)c2ccccc2CN(C)C/C=C/c2ccc(Cl)cc2)cc1 [KN-93] | 88.4
24 | O=C(Cc1ccc(-c2ccc(OCCN3CCOCC3)cc2)cn1)NCc1ccccc1 [KX2-391] | 79.9
25 | FC(F)(F)c1cc(CO[C@H]2CCCN[C@H]2c2ccccc2)cc(C(F)(F)F)c1 [L-733060] | 53.9

Row | Compound | % Inh. (% Inhibition of SARS-CoV-2) [%]
26 | CC(=O)O[C@H]1C[C@H](O[C@H]2[C@@H](O)C[C@H](O[C@H]3[C@@H](O)C[C@H](O[C@H]4CC[C@@]5(C)[C@H](CC[C@@H]6[C@@H]5C[C@@H](O)[C@]5(C)[C@@H](C7=CC(=O)OC7)CC[C@]65O)C4)O[C@@H]3C)O[C@@H]2C)O[C@H](C)[C@H]1O[C@@H]1O[C@H](CO)[C@@H](O)[C@H](O)[C@H]1O [LANATOSIDE C] | 63.7
27 | Cl.c1ccc2c(-c3cnn4cc(-c5ccc(N6CCNCC6)cc5)cnc34)ccnc2c1 [LDN193189 (Hydrochloride)] | 74.3
28 | CN1c2cc3c(cc2N=C(c2ccc(C(=O)O)cc2)c2ccccc21)C(C)(C)CCC3(C)C [LE-135] | 105.5
29 | CC(C)NC(=O)c1ccc(C#Cc2ccncc2)cn1 [LSN-2463359] | 74.9
30 | COc1ccc(CC2NCCc3c2[nH]c2ccc(C)cc32)c(Cl)c1OC (centres unmarked) [LY266097] | 89.3
31 | CC(C)c1c2cc(-c3ccnc(NC4CCC(NC5CCOCC5)CC4)n3)ccc2nn1C (centres unmarked) [LY2857785] | 89.1
32 | CNc1ncc2cc(-c3cc(NC(=O)NCCC(C)(C)C)c(F)cc3C)c(C)nc2n1 [LY3009120] | 101.6
33 | CO[C@@H](C)Cn1c(=O)n(C)c2cnc3ccc(-c4cncc(C(C)(C)O)c4)cc3c21 [LY3023414] | 92.7
34 | CC(CNS(=O)(=O)C(C)C)c1ccc(-c2ccc(C#N)cc2)cc1 (centres unmarked) [LY-404187] | 80.4
35 | N#CC(=C(N)Sc1ccc(N)cc1)c1ccccc1C(F)(F)F [MEK1-2-inhibitor] | 66.9
36 | O=C(O)[C@]1(Cc2cccc(Nc3nccs3)n2)CC[C@@H](Oc2cccc(Cl)c2F)CC1 [MK-5108 (VX-689)] | 77.9
37 | COc1cc2nc(C3CC3)nc(N3CCN(c4ccccc4OC)CC3)c2cc1OC [ML314] | 87.7
38 | O=S(=O)(c1cccc2c(Cl)cccc12)N1CCCNCC1 [ML-9] | 91.9
39 | Cc1cc(C)c(NC(=O)C2CC3CCC2C3)c(C)c1 (centres unmarked) [ML-213] | 69.5
40 | COc1ccc(-c2csc(NC(=O)[C@H]3CCCCN3S(=O)(=O)c3ccc(C)cc3)n2)cc1 [ML-277] | 99.3
41 | COc1ccccc1C(=O)Nc1cccc(NC(=O)c2cccc(C)c2)c1 [ML-365] | 92.7
42 | CC(C)(N)c1cc(C(=O)N[C@@H]2CCc3ccc(Oc4ccnc5c4CCC(=O)N5)cc3C2)cc(C(F)(F)F)c1 [ML-786] | 105.5
43 | CSc1nc(-c2ccnc(NC(C)c3ccccc3)c2)c(-c2ccc(F)cc2)[nH]1 (centres unmarked) [ML-3403] | 50.3
44 | Cc1cc(N2CCOCC2)ccc1Nc1nc(NC2CCCCC2)c2[nH]cnc2n1 [MPI-0479605] | 61.2
45 | CCCCN1C[C@H](O)[C@@H](O)[C@H](O)[C@H]1CO [Miglustat (n-Butyldeoxynojirimycin)] | 64.4
46 | c1ccc2sc(SN3CCOCC3)nc2c1 [N-oxydiethylenebenzothiazole-2-sulfenamide] | 64.6
47 | COc1ccccc1C1(O)CCN(CCCn2c3ccccc3c3ccccc32)CC1 [NNC-05-2090] | 71.8
48 | CC(C)[C@H]1c2ccc(F)cc2CC[C@@]1(CCN(C)CCCc1nc2ccccc2[nH]1)OC(=O)C1CC1 [NNC-55-0396] | 58.1
49 | CC(C)(Cc1ccc2ccccc2c1)NC[C@@H](O)COc1cccc(Cl)c1C#N [NPS-2143 (SB262470)] | 67.3

Same assay, conditions: comparative experiments, Examples 1 and 2

Row | Compound | % Inh (% inhibition of virus infection) [%]
50 | CCOC(=O)N1CCC(=C2c3ccc(Cl)cc3CCc3cccnc32)CC1 [LORATADINE] | 91.4
